From patent publication US6706663B2, “Herbicidal 3-heterocyclic substituted benzisothiazole and benzisoxazole compounds” (Wyeth, priority 2000, dated 2004)

How the values were obtained:
[1] = system: ECHORC (Echinochloa oryzoides); assay: Flooded paddy, postemergence weed control; assay type: in vivo, Echinochloa oryzoides (Ard.) Fritsch.; conditions: postemergence weeds, rated 3-4 weeks after treatment
Excerpt: (§1) Results of herbicide evaluation are expressed on a rating scale (0-9). The scale is based upon a visual observation of plant stand, vigor, malformation, size, chlorosis and overall plant appearance as compared with a control.
(§2) Plastic containers containing weeds which are 3 to 5 cm tall and rice seedlings at the 1.5 to 2.5 leaf stage are flooded with water. The water is maintained at 1.5 to 3 cm above the soil surface for the duration of the experiment. Test compounds are applied as aqueous/acetone mixtures 50/50 v/v directly into the flood water to provide the equivalent of about 0.0320 to 0.2500 kg/ha of active ingredient. The treated containers are placed on greenhouse benches and cared for in accordance with conventional greenhouse procedures. Three to four weeks after treatment, the test is terminated and each container is examined and herbicidal effect rated according to the rating system provided in Example 87. The compounds evaluated are identified in Example 87 and plant species used are identified in Example 89.

CYPIR (Cyperus iria) [2] = assay: Flooded paddy, postemergence weed control; assay type: in vivo; conditions: postemergence weeds, rated 3-4 weeks after treatment
Excerpt: as §1, §2

[3] = system: SAGPY (Sagittaria pygmaea); assay: Flooded paddy, postemergence weed control; assay type: in vivo, L.; conditions: postemergence weeds, rated 3-4 weeks after treatment
Excerpt: as §1, §2

ORYSAT (Rice, Tebonnet) [4] = assay: Flooded paddy, post-transplant and postemergence rice tolerance; assay type: in vivo, Oryza sativa, (L.) Tebonnet; conditions: post-transplant rice, rated 3-4 weeks after treatment
Excerpt: as §1, §2

[5] = system: GLXMAW (Soybean, Williams); assay: Preemergence herbicidal evaluation; assay type: in vivo, Glycine max, (L.) Merr. cv Williams; conditions: rated 4-5 weeks after treatment
[6] = system: AMBEL (Ambrosia artemisifolia); assay: Postemergence herbicidal evaluation; assay type: in vivo, L.; conditions: for AMBEL herbicidal rating: postemergence
Outline: (§3)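 Visual 0–9 injury scores versus control plants, covering stand, vigour, malformation, size, chlorosis and general appearance, taken four to five weeks post-spray and averaged over replicate tests. Plants were sprayed at roughly two weeks old and held on greenhouse benches.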

[7] = system: CHEAL (Chenopodium album); assay: Postemergence herbicidal evaluation; assay type: in vivo, L.; conditions: for CHEAL herbicidal rating: postemergence
Outline: as §3

[8] = system: CASOB (Cassia obtusifolia); assay: Postemergence herbicidal evaluation; assay type: in vivo, L.; conditions: for CASOB herbicidal rating: postemergence
Outline: as §3

[9] = system: IPOHE (Ipomoea hederacea); assay: Preemergence herbicidal evaluation; assay type: in vivo, (L.) Jacq.; conditions: rated 4-5 weeks after treatment
GALAP (Galium aparine) = assay: Postemergence herbicidal evaluation; assay type: in vivo; conditions: for GALAP herbicidal rating: postemergence
Outline: as §3

[10] = system: ABUTH (Abutilon theophrasti); assay: Postemergence herbicidal evaluation; assay type: in vivo, Medic.; conditions: for ABUTH herbicidal rating: postemergence
Outline: as §3

[11] = system: CYPSE (Cyperus serotinus); assay: Flooded paddy, postemergence weed control; assay type: in vivo, Rottb.; conditions: postemergence weeds, rated 3-4 weeks after treatment
Excerpt: as §1, §2

[12] = system: MOOVA (Monochoria vaginalis); assay: Flooded paddy, postemergence weed control; assay type: in vivo, Presl.; conditions: postemergence weeds, rated 3-4 weeks after treatment
Excerpt: as §1, §2

CYPIR (Cyperus iria) [13] = assay: Flooded paddy, preemergence weed control; assay type: in vivo; conditions: rated 3-4 weeks after treatment, 0-9 rating scale
Outline: (§4)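 Preemergence, flooded: propagules planted at 0.5 cm depth in silt loam, water level maintained at 1.5 to 3 cm over soil, containers kept on greenhouse benches. Activity scored 0-9 by eye relative to a control plant.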

[14] = system: SAGPY (Sagittaria pygmaea); assay: Flooded paddy, preemergence weed control; assay type: in vivo, L.; conditions: rated 3-4 weeks after treatment, 0-9 rating scale
Outline: as §4

ZEAMX (Corn, Field) = assay: Preemergence herbicidal evaluation; assay type: in vivo, Zea mays, L.; conditions: rated 4-5 weeks after treatment
ORYSAT (Rice, Tebonnet) [15] = assay: Flooded paddy, post-transplant rice tolerance; assay type: in vivo, Oryza sativa, (L.) Tebonnet; conditions: flooded paddy, post-transplant rice, rated 3-4 weeks after treatment, 0-9 rating scale
Outline: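 Two ten-day-old seedlings were transplanted into silt loam, flooded and held at 1.5 to 3 cm water above the soil before herbicide treatment. Pots stayed in the greenhouse at that water level. Injury was scored visually on a 0-9 scale versus untreated control.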

## 1-methyl-3-[3-(1,3-oxathian-2-yl)-1,2-benzisothiazol-5-yl]-6-(trifluoromethyl)uracil S′,S′-dioxide [Compound 35]
[1]; 0.0620 kg/ha into flood water
  herbicide rating (0-9) ECHORC: 4.0
[1]; 0.1250 kg/ha into flood water
  herbicide rating (0-9) ECHORC: 4.0
[1]; 0.2500 kg/ha into flood water
  herbicide rating (0-9) ECHORC: 9.0
CYPIR (Cyperus iria) [2]; 0.0620 kg/ha into flood water
  herbicide rating (0-9) CYPIR: 9.0
CYPIR (Cyperus iria) [2]; 0.1250 kg/ha into flood water
  herbicide rating (0-9) CYPIR: 9.0
CYPIR (Cyperus iria) [2]; 0.2500 kg/ha into flood water
  herbicide rating (0-9) CYPIR: 9.0
[3]; 0.0620 kg/ha into flood water
  herbicide rating (0-9) SAGPY: 0.0
[3]; 0.1250 kg/ha into flood water
  herbicide rating (0-9) SAGPY: 0.0
[3]; 0.2500 kg/ha into flood water
  herbicide rating (0-9) SAGPY: 0.0
ORYSAT (Rice, Tebonnet) [4]; 0.0620 kg/ha into flood water
  herbicide rating (0-9) ORYSAT (rice tolerance): 3.0
ORYSAT (Rice, Tebonnet) [4]; 0.1250 kg/ha into flood water
  herbicide rating (0-9) ORYSAT (rice tolerance): 4.0
ORYSAT (Rice, Tebonnet) [4]; 0.2500 kg/ha into flood water
  herbicide rating (0-9) ORYSAT (rice tolerance): 5.0
[5]; Rate 0.0620 kg/ha
  GLXMAW preemergence herbicidal rating: 8.0
  Preemergence herbicidal rating GLXMAW: 0.0
[5]; Rate 0.1250 kg/ha
  GLXMAW preemergence herbicidal rating: 9.0
  Preemergence herbicidal rating GLXMAW: 0.5
[5]; Rate 0.2500 kg/ha
  GLXMAW preemergence herbicidal rating: 9.0
  Preemergence herbicidal rating GLXMAW: 2.0
[6]; rate 0.0320 kg/ha
  AMBEL herbicidal rating: 4.0
  Postemergence herbicidal rating, AMBEL: 9.0
[6]; rate 0.0620 kg/ha
  AMBEL herbicidal rating: 9.0
  Postemergence herbicidal rating, AMBEL: 9.0
[7]; rate 0.0320 kg/ha
  CHEAL herbicidal rating: 7.0
  Postemergence herbicidal rating, CHEAL: 9.0
[7]; rate 0.0620 kg/ha
  CHEAL herbicidal rating: 9.0
  Postemergence herbicidal rating, CHEAL: 9.0
[8]; rate 0.0320 kg/ha
  CASOB herbicidal rating: 4.0
  Postemergence herbicidal rating, CASOB: 9.0
[8]; rate 0.0620 kg/ha
  CASOB herbicidal rating: 4.0
  Postemergence herbicidal rating, CASOB: 9.0
[9]; Rate 0.0620 kg/ha
  IPOHE preemergence herbicidal rating: 9.0
  Preemergence herbicidal rating IPOHE: 0.5
[9]; Rate 0.1250 kg/ha
  IPOHE preemergence herbicidal rating: 9.0
  Preemergence herbicidal rating IPOHE: 3.0
[9]; Rate 0.2500 kg/ha
  IPOHE preemergence herbicidal rating: 9.0
  Preemergence herbicidal rating IPOHE: 7.0
GALAP (Galium aparine); rate 0.0320 kg/ha
  GALAP herbicidal rating: 2.0
  Postemergence herbicidal rating, GALAP: 3.0
GALAP (Galium aparine); rate 0.0620 kg/ha
  GALAP herbicidal rating: 4.0
  Postemergence herbicidal rating, GALAP: 4.0
[10]; rate 0.0320 kg/ha
  ABUTH herbicidal rating: 9.0
  Postemergence herbicidal rating, ABUTH: 9.0
[10]; rate 0.0620 kg/ha
  ABUTH herbicidal rating: 9.0
  Postemergence herbicidal rating, ABUTH: 9.0
[11]; 0.0620 kg/ha into flood water
  herbicide rating (0-9) CYPSE: 0.0
[11]; 0.1250 kg/ha into flood water
  herbicide rating (0-9) CYPSE: 0.0
[11]; 0.2500 kg/ha into flood water
  herbicide rating (0-9) CYPSE: 9.0
[12]; 0.0620 kg/ha into flood water
  herbicide rating (0-9) MOOVA: 9.0
[12]; 0.1250 kg/ha into flood water
  herbicide rating (0-9) MOOVA: 9.0
[12]; 0.2500 kg/ha into flood water
  herbicide rating (0-9) MOOVA: 9.0
CYPIR (Cyperus iria) [13]; rate 0.1250 kg/ha
  herbicidal rating, CYPIR: 9.0
[14]; rate 0.0080 kg/ha
  herbicidal rating, SAGPY: 0.0
ZEAMX (Corn, Field); Rate 0.0620 kg/ha
  ZEAMX preemergence herbicidal rating: 5.5
  Preemergence herbicidal rating ZEAMX: 0.0
ZEAMX (Corn, Field); Rate 0.1250 kg/ha
  ZEAMX preemergence herbicidal rating: 9.0
  Preemergence herbicidal rating ZEAMX: 1.0
ZEAMX (Corn, Field); Rate 0.2500 kg/ha
  ZEAMX preemergence herbicidal rating: 9.0
  Preemergence herbicidal rating ZEAMX: 2.5

## Cn1c(C(F)(F)F)cc(=O)n(-c2ccc3snc(-c4ccsc4)c3c2)c1=O [Compound 1, 1-methyl-3-[3-(3-thienyl)-1,2-benzisothiazol-5-yl]-6-(trifluoromethyl)uracil]
[1]; 0.0320 kg/ha into flood water
  herbicide rating (0-9) ECHORC: 9.0
[1]; 0.0620 kg/ha into flood water
  herbicide rating (0-9) ECHORC: 9.0
[1]; 0.1250 kg/ha into flood water
  herbicide rating (0-9) ECHORC: 9.0
CYPIR (Cyperus iria) [2]; 0.0320 kg/ha into flood water
  herbicide rating (0-9) CYPIR: 9.0
CYPIR (Cyperus iria) [2]; 0.0620 kg/ha into flood water
  herbicide rating (0-9) CYPIR: 9.0
CYPIR (Cyperus iria) [2]; 0.1250 kg/ha into flood water
  herbicide rating (0-9) CYPIR: 9.0
ORYSAT (Rice, Tebonnet) [15]; rate 0.0080 kg/ha
  herbicidal rating, ORYSAT (rice tolerance): 4.0
ORYSAT (Rice, Tebonnet) [15]; rate 0.0320 kg/ha
  herbicidal rating, ORYSAT (rice tolerance): 5.5
ORYSAT (Rice, Tebonnet) [15]; rate 0.1250 kg/ha
  herbicidal rating, ORYSAT (rice tolerance): 7.0
[3]; 0.0320 kg/ha into flood water
  herbicide rating (0-9) SAGPY: 4.0
[3]; 0.0620 kg/ha into flood water
  herbicide rating (0-9) SAGPY: 7.0
[3]; 0.1250 kg/ha into flood water
  herbicide rating (0-9) SAGPY: 9.0
ORYSAT (Rice, Tebonnet) [4]; 0.0320 kg/ha into flood water
  herbicide rating (0-9) ORYSAT (rice tolerance): 7.0
ORYSAT (Rice, Tebonnet) [4]; 0.0620 kg/ha into flood water
  herbicide rating (0-9) ORYSAT (rice tolerance): 7.0
ORYSAT (Rice, Tebonnet) [4]; 0.1250 kg/ha into flood water
  herbicide rating (0-9) ORYSAT (rice tolerance): 7.0
[5]; Rate 0.0620 kg/ha
  GLXMAW preemergence herbicidal rating: 7.0
[5]; Rate 0.1250 kg/ha
  GLXMAW preemergence herbicidal rating: 9.0
[5]; Rate 0.2500 kg/ha
  GLXMAW preemergence herbicidal rating: 9.0
[6]; rate 0.0320 kg/ha
  Postemergence herbicidal rating, AMBEL: 9.0
[6]; rate 0.0620 kg/ha
  Postemergence herbicidal rating, AMBEL: 9.0
[6]; rate 0.1250 kg/ha
  Postemergence herbicidal rating, AMBEL: 9.0
[7]; rate 0.0320 kg/ha
  Postemergence herbicidal rating, CHEAL: 9.0
[7]; rate 0.0620 kg/ha
  Postemergence herbicidal rating, CHEAL: 9.0
[7]; rate 0.1250 kg/ha
  Postemergence herbicidal rating, CHEAL: 9.0
[8]; rate 0.0320 kg/ha
  Postemergence herbicidal rating, CASOB: 5.5
[8]; rate 0.0620 kg/ha
  Postemergence herbicidal rating, CASOB: 7.5
[8]; rate 0.1250 kg/ha
  Postemergence herbicidal rating, CASOB: 9.0
[9]; Rate 0.0620 kg/ha
  IPOHE preemergence herbicidal rating: 8.0
[9]; Rate 0.1250 kg/ha
  IPOHE preemergence herbicidal rating: 9.0
[9]; Rate 0.2500 kg/ha
  IPOHE preemergence herbicidal rating: 9.0
GALAP (Galium aparine); rate 0.0320 kg/ha
  Postemergence herbicidal rating, GALAP: 5.0
GALAP (Galium aparine); rate 0.0620 kg/ha
  Postemergence herbicidal rating, GALAP: 6.5
GALAP (Galium aparine); rate 0.1250 kg/ha
  Postemergence herbicidal rating, GALAP: 7.5
[10]; rate 0.0320 kg/ha
  Postemergence herbicidal rating, ABUTH: 9.0
[10]; rate 0.0620 kg/ha
  Postemergence herbicidal rating, ABUTH: 9.0
[10]; rate 0.1250 kg/ha
  Postemergence herbicidal rating, ABUTH: 9.0
[11]; 0.0320 kg/ha into flood water
  herbicide rating (0-9) CYPSE: 2.0
[11]; 0.0620 kg/ha into flood water
  herbicide rating (0-9) CYPSE: 4.0
[11]; 0.1250 kg/ha into flood water
  herbicide rating (0-9) CYPSE: 7.0
[12]; 0.0320 kg/ha into flood water
  herbicide rating (0-9) MOOVA: 9.0
[12]; 0.0620 kg/ha into flood water
  herbicide rating (0-9) MOOVA: 9.0
[12]; 0.1250 kg/ha into flood water
  herbicide rating (0-9) MOOVA: 9.0
CYPIR (Cyperus iria) [13]; rate 0.0080 kg/ha
  herbicidal rating, CYPIR: 9.0
CYPIR (Cyperus iria) [13]; rate 0.0320 kg/ha
  herbicidal rating, CYPIR: 9.0
CYPIR (Cyperus iria) [13]; rate 0.1250 kg/ha
  herbicidal rating, CYPIR: 9.0
[14]; rate 0.0080 kg/ha
  herbicidal rating, SAGPY: 4.0
[14]; rate 0.0320 kg/ha
  herbicidal rating, SAGPY: 4.0
[14]; rate 0.1250 kg/ha
  herbicidal rating, SAGPY: 5.5
ZEAMX (Corn, Field); Rate 0.0620 kg/ha
  ZEAMX preemergence herbicidal rating: 6.0
ZEAMX (Corn, Field); Rate 0.1250 kg/ha
  ZEAMX preemergence herbicidal rating: 6.7
ZEAMX (Corn, Field); Rate 0.2500 kg/ha
  ZEAMX preemergence herbicidal rating: 7.0
